Reference: ChEMBL document CHEMBL1649197, “New combinations of mutations in VanD-Type vancomycin-resistant Enterococcus faecium, Enterococcus faecalis, and Enterococcus avium strains” (2009)
Converted amounts (≈) assume the structure as drawn.

Columns and labels:
Type in all cases: functional
Enterococcus faecium [1] = test: Antimicrobial activity against Enterococcus faecium BM4458 harboring plasmid PAT831 carrying P2 vanSD 6bp330 aac (6)-aph (2) mutant gene after 24 hrs; conditions: BM4458, 24 h
Enterococcus faecium [2] = test: Antimicrobial activity against vancomycin and teicoplanin resistant Enterococcus faecium BM4653 after 24 hrs; conditions: BM4653, 24 h
Enterococcus faecium [3] = test: Antimicrobial activity against Enterococcus faecium BM4458 harboring plasmid PAT830 carrying P2 vanSD (V67A) aac (6)-aph (2) mutant gene after 24 hrs; conditions: BM4458, 24 h
Enterococcus avium = test: Antimicrobial activity against vancomycin and teicoplanin resistant Enterococcus avium BM4655 after 24 hrs; conditions: BM4655, 24 h
Enterococcus faecium [4] = test: Antimicrobial activity against vancomycin and teicoplanin resistant Enterococcus faecium BM4339 after 24 hrs; conditions: BM4339, 24 h
Enterococcus faecium [5] = test: Antimicrobial activity against Enterococcus faecium BM4458 harboring plasmid PAT833 carrying P2 vanSD (G340S) aac (6)-aph (2) mutant gene after 24 hrs; conditions: BM4458, 24 h
Enterococcus faecium [6] = test: Antimicrobial activity against vancomycin and teicoplanin resistant Enterococcus faecium BM4656 after 24 hrs; conditions: BM4656, 24 h
Enterococcus faecium [7] = test: Antimicrobial activity against vancomycin and teicoplanin resistant Enterococcus faecium NEF1 after 24 hrs; conditions: NEF1, 24 h
Enterococcus faecalis = test: Antimicrobial activity against vancomycin and teicoplanin resistant Enterococcus faecalis BM4654 after 24 hrs; conditions: BM4654, 24 h
Enterococcus faecium [8] = test: Antimicrobial activity against Enterococcus faecium BM4458 harboring plasmid PAT832 carrying P2 vanSD (K308Q I309V R335Q) aac (6)-aph (2) mutant gene after 24 hrs; conditions: BM4458, 24 h
Enterococcus faecium [9] = test: Antimicrobial activity against Enterococcus faecium BM4458 after 24 hrs; conditions: BM4458, 24 h

Q: For `CC(=O)N[C@@H]1[C@H](Oc2c3cc4cc2Oc2ccc(cc2Cl)[C@@H](O[C@@H]2O[C@@H](CO)[C@@H](O)[C@H](O)[C@@H]2NC(C)=O)[C@@H]2NC(=O)[C@H](NC(=O)[C@@H]4NC(=O)[C@H]4NC(=O)[C@@H](Cc5ccc(c(Cl)c5)O3)NC(=O)[C@H](N)c3ccc(O)c(c3)Oc3cc(O)cc4c3)c3ccc(O)c(c3)-c3c(O[C@H]4O[C@H](CO)[C@@H](O)[C@@H](O)[C@@H]4O)cc(O)cc3[C@@H](C(=O)O)NC2=O)O[C@@H](CO)[C@@H](O)[C@@H]1O`, which MIC (Enterococcus faecium [1]) is on record?
A: 0.5 mg/L (≈ 0.283 µM)

Q: What about the MIC (Enterococcus faecium [2]) of the same compound?
A: 4 mg/L (≈ 2.26 µM)

Q: And the MIC (Enterococcus faecium [3])?
A: 0.5 mg/L (≈ 0.283 µM)

Q: And the MIC (Enterococcus avium)?
A: 4 mg/L (≈ 2.26 µM)

Q: What about the MIC (Enterococcus faecium [4]) of the same compound?
A: 4 mg/L (≈ 2.26 µM)

Q: What about the MIC (Enterococcus faecium [5]) of the same compound?
A: 0.5 mg/L (≈ 0.283 µM)

Q: What about the MIC (Enterococcus faecium [6]) of the same compound?
A: 4 mg/L (≈ 2.26 µM)

Q: What about the MIC (Enterococcus faecium [7]) of the same compound?
A: 64 mg/L (≈ 36.2 µM)

Q: What about the MIC (Enterococcus faecalis) of the same compound?
A: 0.5 mg/L (≈ 0.283 µM)

Q: And the MIC (Enterococcus faecium [8])?
A: 0.5 mg/L (≈ 0.283 µM)

Q: And the MIC (Enterococcus faecium [9])?
A: 0.5 mg/L (≈ 0.283 µM)

Q: `CN[C@H](CC(C)C)C(=O)N[C@H]1C(=O)N[C@@H](CC(N)=O)C(=O)N[C@H]2C(=O)N[C@H]3C(=O)N[C@H](C(=O)N[C@H](C(=O)O)c4cc(O)cc(O)c4-c4cc3ccc4O)[C@H](O)c3ccc(c(Cl)c3)Oc3cc2cc(c3O[C@@H]2O[C@H](CO)[C@@H](O)[C@H](O)[C@H]2O[C@H]2C[C@](C)(N)[C@H](O)[C@H](C)O2)Oc2ccc(cc2Cl)[C@H]1O` [VANCOMYCIN] was tested. Which MIC (Enterococcus faecium [1]) did it give?
A: 4 mg/L (≈ 2.76 µM)

Q: And the MIC (Enterococcus faecium [2])?
A: 32 mg/L (≈ 22.1 µM)

Q: And the MIC (Enterococcus faecium [3])?
A: 4 mg/L (≈ 2.76 µM)

Q: What about the MIC (Enterococcus avium) of the same compound?
A: 32 mg/L (≈ 22.1 µM)

Q: And the MIC (Enterococcus faecium [4])?
A: 64 mg/L (≈ 44.2 µM)

Q: What about the MIC (Enterococcus faecium [5]) of the same compound?
A: 4 mg/L (≈ 2.76 µM)

Q: What about the MIC (Enterococcus faecium [6]) of the same compound?
A: 32 mg/L (≈ 22.1 µM)

Q: What about the MIC (Enterococcus faecium [7]) of the same compound?
A: 512 mg/L (≈ 353 µM)

Q: What about the MIC (Enterococcus faecalis) of the same compound?
A: 16 mg/L (≈ 11 µM)

Q: And the MIC (Enterococcus faecium [8])?
A: 4 mg/L (≈ 2.76 µM)

Q: And the MIC (Enterococcus faecium [9])?
A: 4 mg/L (≈ 2.76 µM)
